Measured values from patent US20160310578A1, “METHOD OF ACCELERATING OSTEOGENESIS” (Fuji Nihon Seito Corporation, priority 2015, published 2016).

Columns and labels:
[1] = test system: ovariectomized animals (OVX); test: Bone tissue analysis by 3D CTR of the femoral articular head in OVX rats (Example 4); format: in vivo, Wistar rats
Experimental: Animal experiments were conducted using ovariectomized animals (OVX). The animals used were 48 female Wistar rats with body weight of approximately 350 g. They were used in the experiments after being preliminarily reared on standard feed (CE-2 manufactured by CLEA Japan, Inc.) for one week after undergoing ovariectomy. All experiments were approved by the Animal Experiment Ethics Committee of CLEA Japan, Inc. and were conducted according to the policies thereof. The standard feed CE-2 manufactured by CLEA Japan, Inc. contains 1.06 g of calcium per 100 g of the feed as calcium carbonate and calcium iodate (according to 2009 periodic analysis average values listed on the website of CLEA Japan, Inc.). After preliminary feeding, 12 OVX rats were divided into groups of three rats each. Group A was reared on feed obtained by adding 3% collagen and 5% DFA III to the standard feed; Group B was reared on feed obtained by only adding the same amount of DFA III; Group C was reared on feed obtained by only adding the same amount of collagen; Group D was reared on the standard feed only. One week, two weeks, three weeks, and one month after the start of feeding, phenobarbital in a dose of 0.5 mg per 10 g of body weight was administered intraperitoneally to anesthetize the rats. Perfusion fixation was performed by injecting 4% paraformaldehyde solution diluted with cacodylate buffer of pH 7.4 and perfusing for 5 minutes from the left ventricle. After fixation, the articular head of the femur and the tibia of the lower limbs were extracted. 3D CTR images of the articular head were taken using a 3D Micro X-ray CTR-mCT2 for experimental animals (manufactured by Rigaku Corp.). From the 3D CTR images that were taken, five images of cross-sections in the same direction were selected, and the bone area and bone marrow area in each individual was measured and the average taken (Table 5 and FIG. 5).

[2] = test system: OVX rats with osseous defect in the epiphyseal area of the tibia; test: Recovery promoting effect in osseous defect of the tibia in OVX rats, 3D CTR (Example 5); format: in vivo, Wistar rats; settings: one month
Experimental: Animal experiments were conducted using ovariectomized animals (OVX). The animals used were 48 female Wistar rats with body weight of approximately 350 g. They were used in the experiments after being preliminarily reared on standard feed (CE-2 manufactured by CLEA Japan, Inc.) for one week after undergoing ovariectomy. All experiments were approved by the Animal Experiment Ethics Committee of CLEA Japan, Inc. and were conducted according to the policies thereof. The standard feed CE-2 manufactured by CLEA Japan, Inc. contains 1.06 g of calcium per 100 g of the feed as calcium carbonate and calcium iodate (according to 2009 periodic analysis average values listed on the website of CLEA Japan, Inc.).
Using 12 OVX rats after preliminary feeding, phenobarbital in a dose of 0.5 mg per 10 g of body weight was administered intraperitoneally to anesthetize the rats. An incision was made in the skin on the upper portion of the knee joint, and then the knee joint was exposed, and a hole approximately 0.5 mm in diameter was made using a dental round bur in the epiphyseal area of the tibia, and then the incision was sutured.
After the surgery, the rats were divided into four groups of three rats each. Group A was reared on feed obtained by adding 3% collagen and 5% DFA III to the standard feed; Group B was reared on feed obtained by only adding the same amount of DFA III; Group C was reared on feed obtained by only adding the same amount of collagen; Group D was reared on the standard feed only.
After one month of feeding, the same anesthesia was performed, and perfusion fixation was performed with 4% paraformaldehyde from the left ventricle in the same manner as the femur experiment. After fixation, the region where the surgery was performed was extracted, and after washing with 0.8 M cacodylate buffer adjusted to pH 7.4, 3D CTR images were taken using the CTR apparatus mentioned above (FIG. 6).
The bone area and the bone marrow area were measured using five images of the osseous defect in the same manner as in Example 4 (Table 6).

[3] = test system: osteoblastic cell line MC3T3-E1; test: Effect of DFA III on the number of osteoblastic cells (MTS, absorbance 490 nm) (Example 3); format: cell-based, mouse; settings: for light absorbance at 490 nm (relative number of the cells): MC3T3-E1
Experimental: The effect of DFA III on osteoblasts was examined using the osteoblastic cell line MC3T3-E1 isolated from […].
First, 3×10^5 cells of MC3T3-E1 were inoculated in 96 wells containing 90 μL of α-MEM medium containing penicillin (manufactured by Sigma) and streptomycin (manufactured by Sigma) (200 μg/mL). DFA III was added to the culture solution so as to result in concentrations of 10 mM, 50 mM, and 100 mM, and the cells were cultured at 37° C. at a CO2 concentration of 5%. Culturing was performed for five wells each for each of the concentrations, and the number of the cells was counted on day 1, day 4, day 7, and day 14 after culturing.
When counting the number of the cells, the cells were treated with 10 mM trypsin for 30 minutes under the same conditions as the cell culture, and then separated from the well. The cells were then added to 100 μL of MTS solution (manufactured by Promega Corp.), and incubated for 30 minutes under the same conditions as the cell culture, and a light absorbance at the wavelength of 490 nm was measured using a plate reader (“iMark Plate Reader” manufactured by Bio-Rad Laboratories, Inc.). The measured light absorbance represents the relative number of the cells.
The average value of the three from the five wells cultured under the same conditions was taken as the measured value. As a control, the wells were used, where the medium of the wells to which DFA III was not added.

[4] = 3% collagen and/or 5% DFA III in standard feed, one month, articular head of femur
[5] = 3% collagen and/or 5% DFA III in standard feed

## OC[C@H]1O[C@@]2(CO[C@]3(CO)O[C@H](CO)[C@@H](O)[C@@H]3O2)[C@@H](O)[C@@H]1O [DFA III, Difructose anhydride III]
[1]; 3% collagen and/or 5% DFA III in standard feed, one month
  Proportion of bone in articular head (%): 56.1%
[1]; [4]
  Bone area (average): 320.0 μm^2
  Bone marrow area (average): 250.9 μm^2
  Total area: 570.9 μm^2
[1]; one month, FIG. 4
  CTR images: compact bone and cancellous bone, comparison of the groups: No marked difference
[1]; one month, compared with standard feed only
  increase of the proportion of bone in the articular head versus control Group D: 10.2%
[1]; summary of Example 4
  more bone tissue than the group fed standard feed alone: approximately 10%
[2]; [5]
  Bone area: 90.7 μm^2
  Bone marrow area: 704.8 μm^2
  Total area: 795.5 μm^2
[2]
  Proportion of bone in all bone (%): 11.4%
  proportion of new bone formation greater than control Group D: 4.6%
[3]; 10 mM DFA III, 1 Day after culture
  light absorbance at 490 nm (relative number of the cells): 0.309
[3]; 10 mM DFA III, 4 Day after culture
  light absorbance at 490 nm (relative number of the cells): 0.323
[3]; 10 mM DFA III, 7 Day after culture
  light absorbance at 490 nm (relative number of the cells): 0.388
[3]; 10 mM DFA III, 14 Day after culture
  light absorbance at 490 nm (relative number of the cells): 0.736
[3]; 50 mM DFA III, 1 Day after culture
  light absorbance at 490 nm (relative number of the cells): 0.305
[3]; 50 mM DFA III, 4 Day after culture
  light absorbance at 490 nm (relative number of the cells): 0.380
[3]; 50 mM DFA III, 7 Day after culture
  light absorbance at 490 nm (relative number of the cells): 0.430
[3]; 50 mM DFA III, 14 Day after culture
  light absorbance at 490 nm (relative number of the cells): 0.849
[3]; 100 mM DFA III, 1 Day after culture
  light absorbance at 490 nm (relative number of the cells): 0.321
[3]; 100 mM DFA III, 4 Day after culture
  light absorbance at 490 nm (relative number of the cells): 0.390
[3]; 100 mM DFA III, 7 Day after culture
  light absorbance at 490 nm (relative number of the cells): 0.438
[3]; 100 mM DFA III, 14 Day after culture
  light absorbance at 490 nm (relative number of the cells): 0.988
[3]; MC3T3-E1, conclusion from Table 4
  effect on cell division of osteoblasts: stimulates cell division of osteoblasts
[3]; day 1, day 4 and day 7 after culturing
  cell number values versus control group: control group exhibited higher values
[3]; day 14 after culturing, 10, 50 and 100 mM
  cell number values versus control group: higher values than the control group
